From PMC6934184, “Selective DNA-PKcs inhibition extends the therapeutic index of localized radiotherapy and chemotherapy” (The Journal of Clinical Investigation, 2019)

Molecular target: T1, ABL1 E255K (Homo sapiens, UniProt P00519, E255K)
T1 construct: purchased Thermo Fisher Scientific (Life Technologies) SelectScreen
Assay: SelectScreen Z'LYTE
Type: biochemical
In short: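 Percent values come from Thermo SelectScreen profiling of NU5455, combining activity and binding assays. CSF1R was run in Z'LYTE format at Km app ATP, and CAMK1 in Adapta format with ATP listed at 10.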

T1 sequence (P00519 whole entry E255K): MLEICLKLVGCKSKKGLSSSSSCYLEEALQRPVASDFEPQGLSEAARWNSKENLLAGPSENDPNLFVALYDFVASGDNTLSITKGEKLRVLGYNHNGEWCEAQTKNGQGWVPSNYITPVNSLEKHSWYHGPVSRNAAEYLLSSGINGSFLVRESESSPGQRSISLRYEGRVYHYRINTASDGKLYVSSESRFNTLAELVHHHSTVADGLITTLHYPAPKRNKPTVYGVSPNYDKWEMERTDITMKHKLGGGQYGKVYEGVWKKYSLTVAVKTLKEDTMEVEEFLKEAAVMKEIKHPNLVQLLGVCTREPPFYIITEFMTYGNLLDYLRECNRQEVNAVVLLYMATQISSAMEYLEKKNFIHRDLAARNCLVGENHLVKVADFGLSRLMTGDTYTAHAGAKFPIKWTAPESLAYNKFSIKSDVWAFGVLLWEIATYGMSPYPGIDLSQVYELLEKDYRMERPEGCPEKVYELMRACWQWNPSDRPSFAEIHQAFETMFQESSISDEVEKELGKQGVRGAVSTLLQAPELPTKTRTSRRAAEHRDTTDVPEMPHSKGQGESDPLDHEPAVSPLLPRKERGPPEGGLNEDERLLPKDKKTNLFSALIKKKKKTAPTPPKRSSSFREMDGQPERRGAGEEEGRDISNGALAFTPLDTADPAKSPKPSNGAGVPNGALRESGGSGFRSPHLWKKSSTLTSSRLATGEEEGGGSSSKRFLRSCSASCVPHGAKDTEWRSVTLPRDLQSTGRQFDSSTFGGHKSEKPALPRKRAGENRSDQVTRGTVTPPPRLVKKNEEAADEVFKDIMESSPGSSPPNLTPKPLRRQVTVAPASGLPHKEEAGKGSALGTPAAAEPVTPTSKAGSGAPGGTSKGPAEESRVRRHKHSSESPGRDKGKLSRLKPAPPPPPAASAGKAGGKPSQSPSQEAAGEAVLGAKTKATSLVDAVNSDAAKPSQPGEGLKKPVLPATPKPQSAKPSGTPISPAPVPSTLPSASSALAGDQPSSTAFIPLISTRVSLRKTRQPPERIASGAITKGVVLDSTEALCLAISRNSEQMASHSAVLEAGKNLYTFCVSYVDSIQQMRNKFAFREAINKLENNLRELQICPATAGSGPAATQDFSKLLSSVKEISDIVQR

CN(C(=O)CN1CCOCC1)c1ccc2sc3c(-c4cccc5c(=O)cc(N6CC7CCC(C6)O7)oc45)cccc3c2c1 [NU5455]
inhibition at 1 µM: -6.6%
